From patent US8431597B2, “Benzimidazole derivatives” (Pfizer Inc., priority 2007, dated 2013)
Where a name gives a salt, the structure may show the parent alone.

Biological target: T1, Smoothened (SMO) (Mus musculus, UniProt P56726)
T1 construct: C3H10T1/2 cells (ATCC #CCL-226) were split and seeded; endogenous in cells; host or cells: C3H10T1/2 (ATCC #CCL-226)
Assay: Smoothened (SMO)/Sonic Hedgehog (SHh) Transient Transcriptional Activation Assay (Gli-luciferase reporter in C3H10T1/2 cells)
Format: cell-based, murine
Settings: transfected C3H10T1/2 cells, recombinant human SHh 250 ng/mL, 20 hours, luciferase readout; for inhibition at 2 µM: C3H 10T1/2, 2 μM compound, read-out: SMO CELL % INHIBITION @ 2 μM
In short: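 C3H10T1/2 cells transiently transfected with a murine Gli-responsive firefly luciferase reporter plus pEGFP were serum-starved 20 h in 0.5% calf serum. Compound (2 μM to 2 nM final) was added with recombinant human SHh at 250 ng/mL final for 20 h at 37 °C. Read-out was Dual-Glo luminescence.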

T1 sequence (P56726 33-793): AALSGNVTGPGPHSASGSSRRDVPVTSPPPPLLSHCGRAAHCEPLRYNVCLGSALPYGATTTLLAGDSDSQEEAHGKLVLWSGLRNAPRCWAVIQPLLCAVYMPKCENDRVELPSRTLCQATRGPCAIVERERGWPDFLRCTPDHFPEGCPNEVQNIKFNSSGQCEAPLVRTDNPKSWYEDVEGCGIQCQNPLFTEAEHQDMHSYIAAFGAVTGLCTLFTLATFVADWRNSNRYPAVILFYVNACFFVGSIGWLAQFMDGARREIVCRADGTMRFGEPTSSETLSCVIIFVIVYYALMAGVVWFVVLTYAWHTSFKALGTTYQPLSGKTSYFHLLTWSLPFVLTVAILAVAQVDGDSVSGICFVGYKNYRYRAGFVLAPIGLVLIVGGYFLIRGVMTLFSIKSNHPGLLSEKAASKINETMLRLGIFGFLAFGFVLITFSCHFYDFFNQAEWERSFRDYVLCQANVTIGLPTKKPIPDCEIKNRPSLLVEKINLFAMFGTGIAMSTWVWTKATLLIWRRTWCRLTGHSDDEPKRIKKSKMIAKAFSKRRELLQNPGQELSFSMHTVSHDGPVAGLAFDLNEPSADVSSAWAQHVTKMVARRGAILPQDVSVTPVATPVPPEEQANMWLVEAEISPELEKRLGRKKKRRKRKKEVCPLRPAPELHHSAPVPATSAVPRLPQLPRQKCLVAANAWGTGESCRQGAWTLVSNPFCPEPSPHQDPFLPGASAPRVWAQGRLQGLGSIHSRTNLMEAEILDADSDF

Compound | inhibition at 2 µM | SMO CELL % INHIBITION @ 2 μM (2 μM compound, 2 µM)
CC(C)N1C[C@@H](NC(=O)Nc2ccc(Cl)c(C(F)(F)F)c2)C[C@H]1c1nc2ccccc2[nH]1 [Example 93, 1-[(3S,5S)-5-(1H-benzimidazol-2-yl)-1-isopropyl-pyrrolidin-3-yl]-3-[4-chloro-3-(trifluoromethyl)phenyl]urea] | 85.2% | –
CN1CC[C@@H](NC(=O)Nc2ccc(C(F)(F)F)cn2)C[C@@H]1c1nc2ccccc2[nH]1 [Example 101, 1-[(2R,4R)-2-(1H-benzimidazol-2-yl)-1-methylpiperidin-4-yl]-3-[5-(trifluoromethyl)pyridin-2-yl]urea hydrochloride] | 62.5% | –
CN1CC[C@@H](NC(=O)NC2CCCC2)C[C@@H]1c1nc2ccccc2[nH]1 [Example 85, 1-[(2R,4R)-2-(1H-benzimidazol-2-yl)-1-methylpiperidin-4-yl]-3-cyclopentylurea hydrochloride] | 93.1% | –
CN1CC[C@@H](NC(=O)Nc2ccc(C(F)(F)F)nc2)C[C@@H]1c1nc2ccc(Cl)cc2[nH]1 [Example 73, 1-[(2R,4R)-2-(6-chloro-1H-benzimidazol-2-yl)-1-methylpiperidin-4-yl]-3-[6-(trifluoromethyl)pyridin-3-yl]urea hydrochloride] | 101% | –
CN1CC[C@@H](NC(=O)c2ccc3c(c2)OCCO3)C[C@@H]1c1nc2cc(F)c(F)cc2[nH]1 [Example 57, N-[(2R,4R)-2-(5,6-difluoro-1H-benzimidazol-2-yl)-1-methylpiperidin-4-yl]-2,3-dihydro-1,4-benzodioxine-6-carboxamide hydrochloride] | 104% | –
O=C(N[C@@H]1CN[C@H](c2nc3ccccc3[nH]2)C1)c1ccc2c(c1)OCCO2 [Example 11, N-[(3S,5S)-5-(1H-benzimidazol-2-yl)pyrrolidin-3-yl]-2,3-dihydro-1,4-benzodioxine-6-carboxamide] | – | 110.10%
COc1ccc2[nH]c([C@H]3C[C@H](NC(=O)c4ccc5c(c4Cl)OCCO5)CCN3C)nc2c1 [Example 146, 5-chloro-N-[(2R,4R)-2-(5-methoxy-1H-benzimidazol-2-yl)-1-methylpiperidin-4-yl]-2,3-dihydro-1,4-benzodioxine-6-carboxamide triflouroacetate] | 107% | –
CN1CC[C@@H](NC(=O)Nc2ccc(Cl)cc2)C[C@@H]1c1nc2ccccc2[nH]1 [Example 30, 1-[(2R,4R)-2-(1H-benzimidazol-2-yl)-1-methylpiperidin-4-yl]-3-(4-chlorophenyl)urea hydrochloride] | 108% | –
CC(C)CCN1CC[C@@H](NC(=O)Nc2ccc(C#N)cc2)C[C@@H]1c1nc2ccccc2[nH]1 [Example 60, 1-[(2R,4R)-2-(1H-benzimidazol-2-yl)-1-(3-methylbutyl)piperidin-4-yl]-3-(4-cyanophenyl)urea] | 104% | –
COc1ccc2[nH]c([C@H]3C[C@H](NC(=O)Nc4ccc(C(F)(F)F)nc4)CCN3C)nc2c1 [Example 62, 1-[(2R,4R)-2-(5-methoxy-1H-benzimidazol-2-yl)-1-methylpiperidin-4-yl]-3-[6-(trifluoromethyl)pyridin-3-yl]urea hydrochloride] | 104% | –
Cc1ccc(NC(=O)N[C@@H]2CCN(C)[C@@H](c3nc4ccc(F)cc4[nH]3)C2)cn1 [Example 132, 1-[(2R,4R)-2-(6-fluoro-1H-benzimidazol-2-yl)-1-methylpiperidin-4-yl]-3-(6-methylpyridin-3-yl)urea hydrochloride] | 108% | –
Cc1ccc(NC(=O)N[C@@H]2CCN(C)[C@@H](c3nc4cc(C(F)(F)F)ccc4[nH]3)C2)cn1 [Example 128, 1-(6-methylpyridin-3-yl)-3-{(2R,4R)-1-methyl-2-[5-(trifluoromethyl)-1H-benzimidazol-2-yl]piperidin-4-yl}urea hydrochloride] | 102% | –
CC(C)N1C[C@H](NC(=O)Nc2ccc(Cl)c(C(F)(F)F)c2)C[C@H]1c1nc2ccccc2[nH]1 [Example 84, 1-[(3R,5S)-5-(1H-benzimidazol-2-yl)-1-isopropyl-pyrrolidin-3-yl]-3-[4-chloro-3-(trifluoromethyl)phenyl]urea] | 95.4% | –
CN1CC[C@@H](NC(=O)Cc2cc3ccccc3o2)C[C@@H]1c1nc2ccccc2[nH]1 [Example 104, N-[(2R,4R)-2-(1H-benzimidazol-2-yl)-1-methylpiperidin-4-yl]-2-(1-benzofuran-2-yl)acetamide trifluoroacetate] | 99.5% | –
Cc1ccc2nccc(C(=O)N[C@@H]3CCN(C)[C@@H](c4nc5ccccc5[nH]4)C3)c2c1 [Example 103, N-[(2R,4R)-2-(1H-benzimidazol-2-yl)-1-methylpiperidin-4-yl]-6-methylquinoline-4-carboxamide trifluoroacetate] | 100% | –
CN1CC[C@@H](NC(=O)Cn2cc3ccccc3n2)C[C@@H]1c1nc2ccccc2[nH]1 [Example 108, N-[(2R,4R)-2-(1H-benzimidazol-2-yl)-1-methylpiperidin-4-yl]-2-(2H-indazol-2-yl)acetamide trifluoroacetate] | 86.4% | –
CC(C)(C)OC(=O)N1C[C@@H](NC(=O)Nc2ccc(Cl)c(C(F)(F)F)c2)C[C@H]1c1nc2ccccc2[nH]1 [Example 8, tert-butyl (2S,4S)-2-(1H-benzimidazol-2-yl)-4-[({[4-chloro-3-(trifluoromethyl)phenyl]amino}carbonyl)amino]pyrrolidine-1-carboxylate] | 57.1% | –
Cc1cccc2cc(C(=O)N[C@@H]3CCN(C)[C@@H](c4nc5ccccc5[nH]4)C3)nn12 [Example 118, N-[(2R,4R)-2-(1H-benzimidazol-2-yl)-1-methylpiperidin-4-yl]-7-methylpyrazolo[1,5-a]pyridine-2-carboxamide trifluoroacetate] | 65.1% | –
CN1CC[C@@H](NC(=O)c2ccc(C(=O)C(F)(F)F)cc2)C[C@@H]1c1nc2ccccc2[nH]1 [Example 68, N-[(2R,4R)-2-(1H-benzimidazol-2-yl)-1-methylpiperidin-4-yl]-4-(trifluoroacetyl)benzamide] | 102% | –
CN1CC[C@@H](NC(=O)c2cnc3c(c2)OCCO3)C[C@@H]1c1nc2ccccc2[nH]1 [Example 97, N-[(2R,4R)-2-(1H-benzimidazol-2-yl)-1-methylpiperidin-4-yl]-2,3-dihydro[1,4]dioxino[2,3-b]pyridine-7-carboxamide hydrochloride] | 75.4% | –
Cc1cncc(NC(=O)N[C@@H]2CCN(C)[C@@H](c3nc4ccccc4[nH]3)C2)c1 [Example 69, 1-[(2R,4R)-2-(1H-benzimidazol-2-yl)-1-methylpiperidin-4-yl]-3-(5-methylpyridin-3-yl)urea hydrochloride] | 102% | –
CN1CC[C@@H](NC(=O)c2cnn3ccccc23)C[C@@H]1c1nc2ccccc2[nH]1 [Example 115, N-[(2R,4R)-2-(1H-benzimidazol-2-yl)-1-methylpiperidin-4-yl]pyrazolo[1,5-a]pyridine-3-carboxamide trifluoroacetate] | 69.6% | –
COc1ccc2[nH]c([C@H]3C[C@H](NC(=O)Nc4ccc(C)nc4)CCN3C)nc2c1 [Example 129, 1-[(2R,4R)-2-(5-methoxy-1H-benzimidazol-2-yl)-1-methylpiperidin-4-yl]-3-(6-methylpyridin-3-yl)urea hydrochloride] | 104% | –
Cc1ccc2[nH]c([C@H]3C[C@H](NC(=O)Nc4ccc(C)nc4)CCN3C3CCC3)nc2c1 [Example 151, 1-[(2R,4R)-1-cyclobutyl-2-(5-methy-1H-benzimidazol-2-yl)piperidin-4-yl]-3-(6-methylpyridin-3-yl)urea triflouroacetate] | 107% | –
Cc1nc(C(F)(F)F)ccc1C(=O)N[C@@H]1CCN(C)[C@@H](c2nc3ccccc3[nH]2)C1 [Example 91, N-[(2R,4R)-2-(1H-benzimidazol-2-yl)-1-methylpiperidin-4-yl]-2-methyl-6-(trifluoromethyl)nicotinamide hydrochloride] | 87.9% | –
COc1ccc2[nH]c([C@H]3C[C@H](NC(=O)Nc4ccc(OC)nc4)CCN3C)nc2c1 [Example 136, 1-[(2R,4R)-2-(5-methoxy-1H-benzimidazol-2-yl)-1-methylpiperidin-4-y)]-3-(6-methoxypyridin-3-yl)urea hydrochloride] | 106% | –
CN1CC[C@@H](NC(=O)c2cc(-c3ccncc3)n[nH]2)C[C@@H]1c1nc2ccccc2[nH]1 [Example 74, N-[(2R,4R)-2-(1H-benzimidazol-2-yl)-1-methylpiperidin-4-yl]-3-pyridin-4-yl-1H-pyrazole-5-carboxamide hydrochloride] | 101% | –
Cc1cc(C(=O)N[C@@H]2CCN(C)[C@@H](c3nc4ccccc4[nH]3)C2)n(C(C)(C)C)n1 [Example 124, N-[(2R,4R)-2-(1H-benzimidazol-2-yl)-1-methylpiperidin-4-yl]-1-tert-butyl-3-methyl-1H-pyrazole-5-carboxamide trifluoroacetate] | 50.6% | –
Cc1cc2nc([C@H]3C[C@H](NC(=O)Nc4ccc(C(F)(F)F)nc4)CCN3C)[nH]c2cc1C [Example 77, 1-[(2R,4R)-2-(5,6-dimethyl-1H-benzimidazol-2-yl)-1-methylpiperidin-4-yl]-3-[6-(trifluoromethyl)pyridin-3-yl]urea hydrochloride] | 100% | –
CN1CC[C@@H](NC(=O)Nc2ccc(C(F)(F)F)nc2)C[C@@H]1c1nc2cc(C#N)ccc2[nH]1 [Example 55, 1-[(2R,4R)-2-(5-cyano-1H-benzimidazol-2-yl)-1-methylpiperidin-4-yl]-3-[6-(trifluoromethyl)pyridin-3-yl]urea hydrochloride] | 105% | –
